Read-outs that look alike come from different tables or passages of the source.
Tested on: parasite
Assay: Parasite LDH growth assay (Parasite Assay), antiparasite potency
Type: cell-based
Details: parasite LDH growth assay, ring stage parasites, 72 hours incubation at 37° C., read-out: EC50
Protocol: Assessing Antiparasite Potency in a Parasite LDH Growth Assay (Parasite Assay)
The parasite stock was maintained at 4% haematocrit in RPMI-Hepes media buffered with sodium bicarbonate and supplemented with 5% heat inactivated human serum and 0.5% albumax.
On the day of assay set up, a blood smear of the parasite culture was Giemsa stained and counted. The parasitemia was adjusted to 0.7% rings and the haematocrit was diluted to 2% in RPMI-Hepes media buffered with sodium bicarbonate and supplemented with 5% heat inactivated human serum and 0.5% albumax. 30 ul of diluted parasites are then added into 10 ul of media+compound in pre-prepared Greiner TC assay plates. Parasite assay plates were placed in gassed humidified boxes in single layer and allowed to incubate at 37° C. for 72 hours. After 72 hours growth, assay plates are sealed with parafilm and frozen flat, in single file at −80° C. overnight. On the following day, assay plates are allowed to thaw at room temperature for 4 hours to which an LDH assay is performed to measure parasite growth.

| SMILES | EC50 (72 h) [nM] | EC50 [nM] |
| --- | --- | --- |
| CC(C)[C@]1(C)CC(=O)N([C@@H]2CCOc3ccc(C(=O)NC4c5ccccc5OC(C)(C)C4O)cc32)C(=N)N1 (single isomer, unassigned) [Example 11A] | 0.9 |  |
| CCC1C[C@@H](N2C(=N)NC(CC)(CC)CC2=O)c2cc(C(=O)NC3c4ccccc4OC(C)(C)C3O)ccc2O1 (single isomer, unassigned) [Example 13A] | 0.8 |  |
| CCC1C[C@@H](N2C(=N)NC(CC)(CC)CC2=O)c2cc(C(=O)NC3c4ccccc4OC(C)(C)C3O)ccc2O1 (single isomer, unassigned) [Example 13B] | 54 |  |
| CCC1(CC)CC(=O)N(C2c3cc(C(=O)N[C@@H]4c5ccccc5OC(C)(C)[C@H]4O)ccc3CC2OC)C(=N)N1 (single isomer, unassigned) [Example 251A] |  | 0.4 |
| CCC1(CC)CC(=O)N([C@@H]2CCOc3ccc(C(=O)NC4c5cc(F)ccc5C[C@H]4O)cc32)C(=N)N1 (stereo in doubt) [Example 148, (4R)-4-(4,4-diethyl-2-imino-6-oxo-hexahydropyrimidin-1-yl)-N-[(1R,2R)-6-fluoro-2-hydroxy-indan-1-yl]chromane-6-carboxamide] | 2.7 |  |
| CCC1(CC)CC(=O)N(C2CCOc3ccc(C(=O)N[C@@H]4c5ccccc5OC(C)(C)[C@H]4O)cc32)C(=N)N1 (stereo partly drawn) [Example 2A, 4-(4,4-diethyl-2-imino-6-oxotetrahydropyrimidin-1(2H)-yl)-N-((3S,4R)-3-hydroxy-2,2-dimethylchroman-4-yl)chroman-6-carboxamide] | 0.5 |  |
| CCC1(CC)CC(=O)N([C@@H]2CCOc3ccc(C(=O)N[C@H]4CC(C)(C)Oc5ccc(F)cc54)cc32)C(=N)N1 [Example 7A, (R)-4-(4,4-diethyl-2-imino-6-oxotetrahydropyrimidin-1(2H)-yl)-N-((S)-6-fluoro-2,2-dimethylchroman-4-yl)chromane-6-carboxamide] | 0.4 |  |
| CCC1(CC)CC(=O)N([C@@H]2CCOc3ccc(C(=O)NC4c5ccccc5OCC4O)cc32)C(=N)N1 (stereo partly drawn) [Example 8A, (4R)-4-(4,4-diethyl-2-imino-6-oxotetrahydropyrimidin-1(2H)-yl)-N-(3-hydroxychroman-4-yl)chromane-6-carboxamide] |  | 10 |
| CCC1C[C@@H](N2C(=N)NC(CC)(CC)CC2=O)c2cc(C(=O)N[C@@H]3c4ccccc4C[C@H]3O)ccc2O1 (stereo partly drawn) [Example 9A, (4R)-4-(4,4-diethyl-2-imino-6-oxotetrahydropyrimidin-1(2H)-yl)-2-ethyl-N-((1R,2R)-2-hydroxy-2,3-dihydro-1H-inden-1-yl)chromane-6-carboxamide] |  | 0.9 |
| CC(C)[C@]1(C)CC(=O)N([C@@H]2CCOc3ccc(C(=O)N[C@H]4CC(C)(C)Oc5ccccc54)cc32)C(=N)N1 [Example 10A, (R)-N-((S)-2,2-dimethylchroman-4-yl)-4-((S)-2-imino-4-isopropyl-4-methyl-6-oxotetrahydropyrimidin-1(2H)-yl)chromane-6-carboxamide] | 0.5 |  |
| CCC1(CC)CC(=O)N([C@@H]2CCOc3ccc(C(=O)N[C@H]4CC(C)(C)Oc5ccc(Br)cc54)cc32)C(=N)N1 [Example 14A, (R)-N-((S)-6-bromo-2,2-dimethylchroman-4-yl)-4-(4,4-diethyl-2-imino-6-oxotetrahydropyrimidin-1(2H)-yl)chromane-6-carboxamide] | 1 |  |
| CCC1(CC)CC(=O)N([C@@H]2CCOc3ccc(C(=O)N[C@@H]4c5cc(Br)ccc5OC(C)(C)[C@H]4O)cc32)C(=N)N1 [Example 15A, (R)-N-((3S,4R)-6-bromo-3-hydroxy-2,2-dimethylchroman-4-yl)-4-(4,4-diethyl-2-imino-6-oxotetrahydropyrimidin-1(2H)-yl)chromane-6-carboxamide] | 0.3 |  |
| CCC1(CC)CC(=O)N([C@@H]2CC(COC)Oc3ccc(C(=O)N[C@H]4CC(C)(C)Oc5ccccc54)cc32)C(=N)N1 (stereo partly drawn) [Example 16A, (4R)-4-(4,4-diethyl-2-imino-6-oxotetrahydropyrimidin-1(2H)-yl)-N-((S)-2,2-dimethylchroman-4-yl)-2-(methoxymethyl)chromane-6-carboxamide] |  | 0.6 |
